# Assay results published in patent US9028887B2, “Method improve spatial memory via pterostilbene administration” (The United States of America, as represented by the …, priority 2007, dated 2015).
# Tests used:
# [1] = system: 19-month-old male Fischer 344 rats; assay: Morris Water Maze, working memory version, in aged rats on pterostilbene diet; format: in vivo, rat; settings: for distance to find the platform, Trial 1 vs Trial 2: days 3 and 4; for latency to find the platform, Trial 1 vs Trial 2: days 3 and 4, ninth week
# Description: Forty-two 19-month-old male Fischer 344 rats were obtained from the NIA colony (Harlan Sprague Dawley, Indianapolis, Ind.). The rats were individually housed in stainless steel mesh suspended cages, provided food and water ad libitum, and maintained on a 12-hour light/dark cycle. The rats were given one week to adjust to their new environment, after which time they were weight matched and then randomly placed on one of three diets for 12-13 weeks total (n=14/group): control, low dose pterostilbene (0.004%, equivalent to 2.5 mg/kg body weight), or high dose pterostilbene (0.016%, equivalent to 10 mg/kg body weight). All animals were observed daily for clinical signs of disease.
# The pterostilbene diets were prepared at Harlan Teklad (Madison, Wis.) by adding crystalline pterostilbene to the control diet, of 40 mg/kg diet, 0.004% w/w for low dose, 160 mg/kg diet, 0.016% w/w for high dose. The amount of corn in the control diet was adjusted to compensate for the added volume of the pterostilbene. The rats were maintained on either the control or pterostilbene diet for eight weeks before motor testing and nine weeks before cognitive testing at 21 months.
# The Morris Water Maze (MWM) is a method to test spatial learning and memory of subjects. Developed by Richard Morris, the MWM is an age and diet sensitive learning paradigm that requires a subject to locate a hidden platform (10 cm in diameter) positioned below the surface (2 cm) of a circular pool of water (134 cm in diameter×50 cm in height, maintained at 23° C.) based on distal cues, and to remember its location from the previous trial. Accurate navigation is rewarded with escape from the water onto the platform, for which the subject uses distal cues such as posters, the experimenter, a computer, cage racks, to effectively locate. The working memory version of the MWM (Brandeis et al., 1989. Int J Neurosci. 48:29-69 Morris R., 1984. J Neurosci Methods. 11; 47-60.) was performed daily for four consecutive days during the ninth week of treatment, with a morning and an afternoon session, two trials each session, with a 10 minute inter-trial interval between the two trials. Rats were tested in a random manner, with the restriction that one subject from each group be tested in succession. At the beginning of each trial, the subject was gently immersed in the water at one of four randomized start locations. […] Once the subject reached the platform, it remained there for 15 sec (Trial 1; reference memory or acquisition trial). The subject was returned to its home cage between trials (10 min). Trial 2 (the working memory or retrieval trial) used the same platform location and start position as Trial 1. Performances were videotaped and analyzed with image tracking software (HVS Image, UK), which allows measurements of latency (sec) time to find the platform), path length (cm), and swimming speed (cm/sec; […]). A detailed description of the maze and the paradigm used is disclosed in Shukitt-Hale et al., 1998. Experimental Gerontology, 33:615-624, and incorporated herein by reference.
# [2] = system: striatal slices; assay: Oxotremorine enhancement of K+-evoked dopamine release from striatal slices of diet-fed rats; format: in vivo, rat; settings: for dopamine release (oxotremorine-enhanced striatal K+-ERDA), H2O2-treated vs non-H2O2-treated: 50 μM H2O2, 500 μM oxotremorine
# Description: The muscarinic enhancement of K^+-evoked dopamine release (K^+-ERDA) from superfused striatal slices is an indicator of receptor sensitivity and striatal function and is sensitive to aging and oxidative stress as disclosed in Joseph et al., 1988. Brain Res., 454:140-8: Joseph et al., 1988. Brain Res., 454:149-55; Joseph J., et al., 1990. Brain Res., 537:40-48; Joseph et al., 1996. Free Radic. Biol. Med., 20: 821-30 and herein incorporated by reference. Additionally, muscarinic enhancement of dopamine release is sensitive to dietary supplementation as disclosed in Joseph et al., 1998. J. Neurosci., 18: 8047-8055; Joseph et al., 1999. J. Neurosci., 19: 8114-8121; Youdim et al., 2000. Nutr Neurosci., 3: 383-97; Shukitt-Hale et al., 2005. Age., 27: 49-57; Shukitt-Hale et al., 2006. Nutrition, 22: 295-302 and herein incorporated by reference. The protective capacity of the striatal tissue obtained from the control and supplemented groups were assessed by examining differences in the oxotremorine-enhancement of striatal K^+-ERDA. Dopamine release was conducted 2-3 weeks following behavioral testing on freshly dissected and cross cut (300 μm, McIlwain tissue chopper) striatal slices from subject brains that were fed a high dose, low dose and control diet. The slices were placed in small glass vials containing modified Krebs-Ringer basal release medium (BRM) that had been bubbled for 30 min with 95% O2/5% CO2 and containing 21 mM NaHCO3, 3.4 mM glucose, 1.3 mM NaH2PO4, 1 mM EGTA, 0.93 mM MgCl2, 127 mM NaCl and 2.5 mM KCl (low KCl) (pH 7.4). Half of the tissue was treated with 50 μM […] to assess the effect of diet under conditions of oxidative stress. […] Following this equilibration period, the medium was switched to one containing (in mM) KCl 30 (high KCl), CaCl2.2H2O 1.26 (in place of EGTA), NaCl 57, and 0 or 500 μM oxotremorine and then the enhancement of K^+-ERDA was assessed. Dopamine release was quantitated by HPLC coupled to electrochemical detection and expressed as pmoles/mg protein as determined by the Lowry procedure.
# [3] = target: T1, peroxisome proliferator-activated alpha isoform, (PPARα) (Homo sapiens, UniProt Q07869); settings: Rimando et al., 2005; cited from earlier work
# T1 sequence (Q07869 1-468): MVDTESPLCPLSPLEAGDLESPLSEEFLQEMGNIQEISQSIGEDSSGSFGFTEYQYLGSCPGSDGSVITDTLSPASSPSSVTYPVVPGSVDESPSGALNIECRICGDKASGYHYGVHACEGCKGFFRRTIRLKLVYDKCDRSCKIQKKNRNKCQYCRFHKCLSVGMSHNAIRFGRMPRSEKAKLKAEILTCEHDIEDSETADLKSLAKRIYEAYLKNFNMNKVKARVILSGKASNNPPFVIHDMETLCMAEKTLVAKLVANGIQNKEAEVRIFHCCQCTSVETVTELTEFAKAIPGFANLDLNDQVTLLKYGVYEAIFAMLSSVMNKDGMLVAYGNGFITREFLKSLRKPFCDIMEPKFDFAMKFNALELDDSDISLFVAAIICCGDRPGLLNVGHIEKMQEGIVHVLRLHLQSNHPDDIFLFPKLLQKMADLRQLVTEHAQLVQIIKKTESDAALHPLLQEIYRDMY
# [4] = high dose diet 0.016% (10 mg/kg body weight)
smiles,measurement,setting,value
"COc1cc(/C=C/c2ccc(O)cc2)cc(OC)c1 [pterostilbene, trans-3,5-dimethoxy-4′-hydroxystilbene]",latency or distance to find the platform between the diet groups,"[1]; Trial 1 or Trial 2, low and high dose vs control diet",no differences in latency or distance to find the platform
same,"distance to find the platform, Trial 1 vs Trial 2",[1]; [4],significant (p<0.05) differences in distance
same,"latency to find the platform, Trial 1 vs Trial 2",[1]; [4],significant (p<0.05) difference in latency
same,"distance to find the platform, Trial 1 vs Trial 2",[1]; low dose diet 0.004% (2.5 mg/kg body weight),significant (p<0.05) differences in distance
same,"latency to find the platform, Trial 1 vs Trial 2","[1]; low dose diet 0.004% (2.5 mg/kg body weight), p=0.09",tended to improve from Trial 1 to Trial 2
same,spatial memory performance compared to control diet fed group,[1]; pterostilbene diets (low and high dose),improved spatial memory performance
same,dopamine release (oxotremorine-enhanced striatal K+-ERDA) among diet groups,"[2]; basal conditions (no H2O2), low and high dose vs control diet, p>0.05",no differences among the diet groups
same,"dopamine release (oxotremorine-enhanced striatal K+-ERDA), H2O2-treated vs non-H2O2-treated",[2]; high dose diet 0.016%,no differences were seen following H2O2 treatment
same,"dopamine release (oxotremorine-enhanced striatal K+-ERDA), H2O2-treated vs non-H2O2-treated",[2]; low dose diet 0.004%,no differences were seen following H2O2 treatment
same,activation of PPARα,[3],identified to activate
